Source: US4332820A, “Substituted benzonitriles having antiviral activity” (The Dow Chemical Company, priority 1980, dated 1982)
≈ marks a conversion by molar mass, not a printed value.

What was measured:
rhinovirus type 68 = assay: Inhibition of multiplication, WI-38 cell culture tubes; format: cell-based; details: Enterovirus, 25 μg/ml, read-out: inhibition grade
rhinovirus type 6 = assay: as above; format: cell-based; details: Enterovirus, 25 μg/ml, read-out: inhibition grade
rhinovirus type 58 = assay: as above; format: cell-based; details: Enterovirus, 25 μg/ml, read-out: inhibition grade
parainfluenza 1 = format: cell-based; details: at the test concentrations
rhinovirus type 2 (RV-2) = assay: Tissue culture antiviral testing, RV-2 (cytopathic effect, HeLa cells); format: cell-based; details: Enterovirus, HeLa cells, NA = not active at the standard test conditions, read-out: Lowest concentration of the compound necessary to cause a 50 percent reduction in cytopathic effect
[1] = tested on: Coxsackie A21 virus (Cox A21); assay: Tissue culture antiviral testing, Cox A21 (cytopathic effect, HeLa cells); format: cell-based; details: HeLa cells, NA = not active at the standard test conditions, read-out: Lowest concentration of the compound necessary to cause a 50 percent reduction in cytopathic effect
influenza A = format: cell-based; details: at the test concentrations
rhinovirus type 17 = assay: Inhibition of multiplication, WI-38 cell culture tubes; format: cell-based; details: Enterovirus, 25 μg/ml, read-out: inhibition grade
[2] = Acute oral toxicity in beagle dogs; details: dog, in vivo
Excerpt: Testing in beagle dogs indicated an acute oral toxicity of greater than 2 grams/kg.

rhinovirus type 13 = assay: Inhibition of multiplication, WI-38 cell culture tubes; format: cell-based; details: Enterovirus, 25 μg/ml, read-out: inhibition grade
rhinovirus type 39 = assay: as above; format: cell-based; details: Enterovirus, 25 μg/ml, read-out: inhibition grade
rhinovirus type 59 = assay: as above; format: cell-based; details: Enterovirus, 25 μg/ml, read-out: inhibition grade
[3] = Cytotoxicity in tissue culture (HeLa monolayers); format: cell-based; details: human; HeLa cells; observed at 48 and 72 hours post-treatment; read-out: Cytotoxicity (concentration of the compound found to be toxic to the cell)
influenza WSN = assay: Further tissue culture testing; format: cell-based; details: at the test concentrations
Coxsackie B4 = format: cell-based; details: enterovirus Coxsackie B4
rhinovirus type 56 = assay: Inhibition of multiplication, WI-38 cell culture tubes; format: cell-based; details: Enterovirus, 25 μg/ml, read-out: inhibition grade
[4] = tested on: parainfluenza NDV (Newcastle's disease virus); format: cell-based; details: at the test concentrations
rhinovirus type 74 = assay: Inhibition of multiplication, WI-38 cell culture tubes; format: cell-based; details: Enterovirus, 25 μg/ml, read-out: inhibition grade
rhinovirus type 5 (RV-5) = assay: Tissue culture antiviral testing, RV-5 (cytopathic effect, HeLa cells); format: cell-based; details: Enterovirus, HeLa cells, read-out: Lowest concentration of the compound necessary to cause a 50 percent reduction in cytopathic effect
rhinovirus type 4 = assay: Inhibition of multiplication, WI-38 cell culture tubes; format: cell-based; details: Enterovirus, 25 μg/ml, read-out: inhibition grade
Picornaviruses = assay: Antiviral activity against picornaviruses, overall (tissue culture and animal testing)
Description: Monolayered HeLa cells in 16 millimeter (mm) tissue culture dishes were treated with 1 ml of culture medium (Eagles medium supplemented with fetal calf serum) containing subject compound at an appropriate concentration or containing no compound at all. Culture mediums such as those described herein are more fully described in standard texts, as for example, Kuchler's Biochemical Methods in Cell Culture and Virology, Dowden, Hutchinson and Ross, Inc., Stroudsberg, Pa. (1977). Following treatment, cells were challenged with 0.05 ml of rhinovirus type 1A (RV-1A), rhinovirus type 2 (RV-2) or Coxsackie A21 virus (Cox A21) in culture medium. Some of the compounds were also tested against rhinovirus type 5 (RV-5), rhinovirus type 8 (RV-8) or rhinovirus type 64 (RV-64). Cell controls received no viruses.
In addition, some of the compounds were tested in animals utilizing the following procedure, hereinafter referred to as the "Single Oral Dose" test. […] Mice were observed daily for 7-10 days post-challenge and deaths recorded. […]
Some of the compounds were also tested in animals utilizing the following procedure, hereinafter referred to as the "Continuous Oral Feeding" test. […] Deaths in both control and experimental groups were recorded for the 10 days and the results analyzed by a chi-square test. […]

rhinovirus type 19 = assay: Inhibition of multiplication, WI-38 cell culture tubes; format: cell-based; details: Enterovirus, 25 μg/ml, read-out: inhibition grade
rhinovirus type 75 = assay: as above; format: cell-based; details: Enterovirus, 25 μg/ml, read-out: inhibition grade
Cox A21 = assay: Single Oral Dose test in mice challenged with Cox A21; format: in vivo, Swiss male mice
rhinovirus type 29 = assay: Inhibition of multiplication, WI-38 cell culture tubes; format: cell-based; details: Enterovirus, 25 μg/ml, read-out: inhibition grade
rhinovirus type 8 = assay: as above; format: cell-based; details: Enterovirus, 25 μg/ml, read-out: inhibition grade
rhinovirus type 8 (RV-8) = assay: Tissue culture antiviral testing, RV-8 (cytopathic effect, HeLa cells); format: cell-based; details: Enterovirus, HeLa cells, read-out: Lowest concentration of the compound necessary to cause a 50 percent reduction in cytopathic effect
[5] = tested on: rhinovirus type 64 (RV-64); assay: Tissue culture antiviral testing, RV-64 (cytopathic effect, HeLa cells); format: cell-based; details: Enterovirus, HeLa cells, NA = not active at the standard test conditions, read-out: Lowest concentration of the compound necessary to cause a 50 percent reduction in cytopathic effect
influenze PR 8 = format: cell-based; details: at the test concentrations
Acute toxicity in rats = details: rat, in vivo
Coxsackie A21 virus = assay: Continuous Oral Feeding test in mice challenged with Coxsackie A21; format: in vivo
[6] = tested on: feline calici virus, unconfirmed; format: cell-based; details: at the test concentrations
rhinovirus type 10 = assay: Inhibition of multiplication, WI-38 cell culture tubes; format: cell-based; details: Enterovirus, 25 μg/ml, read-out: inhibition grade
[7] = tested on: Herpes simplex virus type 1; format: cell-based; details: at the test concentrations
rhinovirus type 64 = assay: Inhibition of multiplication, WI-38 cell culture tubes; format: cell-based; details: Enterovirus, 25 μg/ml, read-out: inhibition grade
[8] = tested on: rhinovirus type 1A (RV-1A); assay: Tissue culture antiviral testing, RV-1A (cytopathic effect, HeLa cells); format: cell-based; details: Enterovirus, HeLa cells, NA = not active at the standard test conditions, read-out: Lowest concentration of the compound necessary to cause a 50 percent reduction in cytopathic effect
rhinovirus type 60 = assay: Inhibition of multiplication, WI-38 cell culture tubes; format: cell-based; details: Enterovirus, 25 μg/ml, read-out: inhibition grade
[9] = tested on: Hank's (untyped) rhinovirus; assay: as above; format: cell-based; details: Enterovirus, 25 μg/ml, read-out: inhibition grade
rhinovirus type 81 = assay: as above; format: cell-based; details: Enterovirus, 25 μg/ml, read-out: inhibition grade
rhinovirus type 21 = assay: as above; format: cell-based; details: Enterovirus, 25 μg/ml, read-out: inhibition grade
Coxsackie B2 = format: cell-based; details: enterovirus Coxsackie B2
adenovirus (untyped) = format: cell-based; details: at the test concentrations

N#Cc1cc([N+](=O)[O-])ccc1Oc1ccc(Cl)c(Cl)c1 [Example 1, 2-(3,4-Dichlorophenoxy)-5-nitrobenzonitrile]
inhibition at 25 µg/mL (rhinovirus type 68): ≥ 75% | inhibition at 25 µg/mL (rhinovirus type 6): ≥ 75% | inhibition at 25 µg/mL (rhinovirus type 58): ≥ 75% | effect on virus multiplication (parainfluenza 1): did not affect the multiplication | EC50 (rhinovirus type 2 (RV-2)): 0.25 µg/mL (≈ 0.809 µM) | EC50 [1]: 0.25 µg/mL (≈ 0.809 µM) | effect on virus multiplication (influenza A): did not affect the multiplication | inhibition at 25 µg/mL (rhinovirus type 17): ≥ 75% | LD50 [2]: > 2000 mg/kg | inhibition at 25 µg/mL (rhinovirus type 13): ≥ 75% | inhibition at 25 µg/mL (rhinovirus type 39): ≥ 75% | inhibition at 25 µg/mL (rhinovirus type 59): ≥ 75% | MCC [3]: > 100 µg/mL | effect on virus multiplication (influenza WSN): did not affect the multiplication | inhibitory activity (Coxsackie B4): displayed inhibitory activity | inhibition at 25 µg/mL (rhinovirus type 56): ≥ 75% | effect on virus multiplication [4]: did not affect the multiplication | inhibition at 25 µg/mL (rhinovirus type 74): ≥ 75% | EC50 (rhinovirus type 5 (RV-5)): 0.5 µg/mL (≈ 1.62 µM) | inhibition at 25 µg/mL (rhinovirus type 4): ≥ 75% | effectiveness against picornaviruses (Picornaviruses; general statement): particularly effective against Picornaviruses | antiviral activity compared with 5-(3,4-dichlorophenoxy)-2-nitrobenzonitrile (Picornaviruses; standard tissue culture and animal testing): markedly greater antiviral activity | inhibition at 25 µg/mL (rhinovirus type 19): ≥ 75% | inhibition at 25 µg/mL (rhinovirus type 75): ≥ 75% | antiviral activity in the "Single Oral Dose" test (Cox A21; in words, 95% confidence level): exhibited antiviral activity | X^2 (Single Oral Dose, chi-square of deaths vs virus control) (Cox A21; po, 600 mg/kg, 3 h): 5.36 | inhibition at 25 µg/mL (rhinovirus type 29): ≥ 75% | inhibition at 25 µg/mL (rhinovirus type 8): ≥ 75% | EC50 (rhinovirus type 8 (RV-8)): 0.25 µg/mL (≈ 0.809 µM) | EC50 [5]: 0.156 µg/mL (≈ 0.505 µM) | effect on virus multiplication (influenze PR 8): did not affect the multiplication | LD50 (Acute toxicity in rats; ip, intraperitoneal, read-out: acute toxicity, intraperitoneal administration): > 2000 mg/kg | LD50 (Acute toxicity in rats; oral, read-out: acute oral toxicity): ~5000 mg/kg | antiviral activity in the "Continuous Oral Feeding" test (Coxsackie A21 virus; in words, 95% confidence level): exhibited antiviral activity | X^2 (Continuous Oral Feeding, chi-square of deaths) (Coxsackie A21 virus; po, 0.06 % in diet, 240 h, 0.06 % strength): 23.62 | effect on virus multiplication [6]: did not affect the multiplication | inhibition at 25 µg/mL (rhinovirus type 10): ≥ 75% | effect on virus multiplication [7]: did not affect the multiplication | inhibition at 25 µg/mL (rhinovirus type 64): ≥ 75% | EC50 [8]: 0.5 µg/mL (≈ 1.62 µM) | inhibition at 25 µg/mL (rhinovirus type 60): ≥ 75% | inhibition at 25 µg/mL [9]: ≥ 75% | inhibition at 25 µg/mL (rhinovirus type 81): ≥ 75% | inhibition at 25 µg/mL (rhinovirus type 21): ≥ 75% | inhibitory activity (Coxsackie B2): displayed inhibitory activity | effect on virus multiplication (adenovirus (untyped)): did not affect the multiplication
